From US5342974A, “Halogenated anthraquinone and their use as near infrared rays absorbing optical filters” (Mitsui Toatsu Chemicals, Incorporated, priority 1987, dated 1994)

What was measured:
[1] = Transmittance at 860 nm of the product dissolved in chloroform; format: physicochemical; settings: for transmittance at 860 nm of the product in chloroform: product/chloroform=4 mg/100 ml; for Transmittance*: measured at 860 nm in chloroform (Table 1)
Description: In order to use colorants consisted in such optical filters, fairly high purity is required. However conventional near infrared rays absorbing colorants have low purity and inadequate absorption characteristics and thus can scarecely be used. Particularly in case of a 1,4,5,8-tetraanilidoanthraquinone, the allowable limit of its transmittance in the vicinity of 860 nm is at a level of about 95 to about 96% (a concentration of the dissolved colorant at the time of the transmittance measurement is 4 mg per 100 ml of chloroform). If its transmittance is below this level, the transmission of semiconductor laser beams is hindered noticeably, and therefore it is difficult to use such a colorant as a near infrared rays absorbing filter for measuring equipment and the like where particularly high accuracy is required.
(§1) In general, laser beams used for the near infrared rays absorbing filters have a wavelength of 830 nm or more, but the wavelength depends upon use applications. In the examples described following, the most usual wavelength of about 860 nm was used to measure the transmittance of compounds represented by the formula (I), and the estimation was made by comparing absorption wave shapes.
A mixture of 10.87 parts of 99%-purity 1,4,5,8-tetrachloroanthraquinone recrystallized from chlorobenzene, 27.2 parts of p-toluidine, 31.3 parts of p-chloroaniline, 13.4 parts of potasssium acetate, 1.24 parts of copper sulfate and 3.41 parts of benzyl alcohol was heated 130° C. under a nitrogen gas flow and the reaction mixture was then maintained at this temperature for 6.5 hours. Afterward, the reaction mixture was cooled to 70° C. and was then poured into 217 parts of ethanol, followed by filtration, ethanol washing, water washing and drying. The resultant crude product was then subjected to recrystallization from pyridine, thereby obtaining 14.2 parts of desired 1-(p-chloroanilido)-4,5,8-tris(p-methylanilido)anthraquinone (yield=70%) in high purity. By the use of a high-speed liquid chromatography (made by Shimadzu Seisakusho Ltd., SHIM-PACK CLC-ODS column, acetonitrile development, detection at 254 nm), it was confirmed that the purity of the product was 99.5%. In addition, the transmittance at 860 nm of the product in chloroform was 99% (product/chloroform=4 mg/100 ml).
The same procedure as in Example 1 or 3 was repeated to synthesize the compounds shown in Table 1, and yield, purity and transmittance at 860 nm of each product were then measured. The respective substituents A, B, C and D in the table correspond to those of formula (I).
*The transmittance was measured at 860 nm in chloroform.

[2] = Transmittance-versus-wavelength curve in chloroform (FIG. 1), judged as a near infrared filter; format: physicochemical; settings: curve 3 of FIG. 1
Description: FIG. 1 is a graph illustrating transmittance to wavelength of a solution in chloroform of the compounds of Examples 1 and 3 and Comparative Example 1, in which carves 1, 2 and 3 are the absorption curves of the compounds of Example 1, Example 3 and Comparative Example i respectively.
In the anthraquinone of present invention, at least one of four anilido benzene rings is substituted by a halogen atom such as chlorine, fluorine and bromine, which preferably is in the p-position. The anthraquinone bearing a halogen atom realizes a wave shape of the light absorption of the absorption curves of these compounds render them very suitable for near infrared rays absorbing filters. That is, the anthraquinone bearing a halogen atom can mostly absorb the light in the wavelength range of 700 to 800 nm and realize the transmittance curve which is steeper slope in vicinity of 800 nm than one of other anthraquinone bearing no halogen atom.
as §1, with “shapes. […]” for “shapes.”

With `Cc1ccc(Nc2ccc(Nc3ccc(C)cc3)c3c2C(=O)c2c(Nc4ccc(C)cc4)ccc(Nc4ccc(C)cc4)c2C3=O)cc1` [Comparative Example 1, 1,4,5,8-tetrakis(p-methylanilido)anthraquinone, reference compound] the “transmittance at 860 nm of the product in chloroform” value (from here on “transmittance at 860 nm”) [1] was 99% and the “transmission of the product in a 800-830 wavelength range” value [2] was “poor”.
In the case of `Cc1ccc(Nc2ccc(Nc3ccc(C)cc3)c3c2C(=O)c2c(Nc4ccc(C)cc4)ccc(Nc4ccc(Cl)cc4)c2C3=O)cc1` [Example 1, 1-(p-chloroanilido)-4,5,8-tris(p-methylanilido)anthraquinone], the “transmittance at 860 nm” value [1] was 99%.
For `CCCCc1ccc(Nc2ccc(Nc3ccc(Cl)cc3)c3c2C(=O)c2c(Nc4ccc(CCCC)cc4)ccc(Nc4ccc(CCCC)cc4)c2C3=O)cc1` [Example 2, 1-(p-chloroanilido)-4,5,8-tris(p-n-butylanilido)anthraquinone], the “transmittance at 860 nm” value [1] was 99.2%.
For `Cc1ccc(Nc2ccc(Nc3ccc(C)cc3)c3c2C(=O)c2c(Nc4ccc(Cl)cc4)ccc(Nc4ccc(Cl)cc4)c2C3=O)cc1` [Example 3, 1,4-bis(p-chloroanilido)-5,8-bis(p-methylanilido)anthraquinone], the “transmittance at 860 nm” value [1] was 99.6%.
In the case of `O=C1c2c(Nc3ccccc3)ccc(Nc3ccccc3)c2C(=O)c2c(Nc3ccc(Cl)cc3)ccc(Nc3ccccc3)c21` [Example 4], the “Transmittance*” value [1] was 98.8%.
With `COc1ccc(Nc2ccc(Nc3ccc(Cl)cc3)c3c2C(=O)c2c(Nc4ccc(OC)cc4)ccc(Nc4ccc(OC)cc4)c2C3=O)cc1` [Example 5] the “Transmittance*” value [1] was 98.9%.
In the case of `O=C1c2c(Nc3ccc(Cl)cc3)ccc(Nc3ccc(Cl)cc3)c2C(=O)c2c(Nc3ccc(Cl)cc3)ccc(Nc3ccc(Cl)cc3)c21` [Example 6], the “Transmittance*” value [1] was 100%.
For `O=C1c2c(Nc3ccc(Cl)cc3)ccc(Nc3ccc(C4CCCCC4)cc3)c2C(=O)c2c(Nc3ccc(C4CCCCC4)cc3)ccc(Nc3ccc(C4CCCCC4)cc3)c21` [Example 7], the “Transmittance*” value [1] was 99.2%.
In the case of `O=C1c2c(Nc3ccc(O)cc3)ccc(Nc3ccc(O)cc3)c2C(=O)c2c(Nc3ccc(Cl)cc3)ccc(Nc3ccc(Cl)cc3)c21` [Example 8], the “Transmittance*” value [1] was 98.5%.
For `Cc1ccc(Nc2ccc(Nc3ccc(Cl)cc3)c3c2C(=O)c2c(Nc4ccc(C5CCCCC5)cc4)ccc(Nc4ccc(C)cc4)c2C3=O)cc1` [Example 9], the “Transmittance*” value [1] was 99.5%.
With `Cc1ccc(Nc2ccc(Nc3ccc(C)cc3)c3c2C(=O)c2c(Nc4ccc(C)cc4)ccc(Nc4ccc(F)cc4)c2C3=O)cc1` [Example 10] the “Transmittance*” value [1] was 99.2%.
For `Cc1ccc(Nc2ccc(Nc3ccc(C)cc3)c3c2C(=O)c2c(Nc4ccc(C)cc4)ccc(Nc4cccc(Br)c4)c2C3=O)cc1` [Example 11], the “Transmittance*” value [1] was 98.2%.
With `COc1ccc(Nc2ccc(Nc3ccc(OC)cc3)c3c2C(=O)c2c(Nc4ccc(OC)cc4)ccc(Nc4cccc(F)c4)c2C3=O)cc1` [Example 12] the “Transmittance*” value [1] was 99.6%.
In the case of `Cc1ccc(Nc2ccc(Nc3ccc(C4CCCCC4)cc3)c3c2C(=O)c2c(Nc4ccc(Br)cc4)ccc(Nc4ccc(C5CCCCC5)cc4)c2C3=O)cc1` [Example 13], the “Transmittance*” value [1] was 99.1%.
